Experiments:
human GPR40 = target: T1, human GPR40 (Homo sapiens, UniProt O14842); test: Cell-based aequorin assay; conditions: CHO cells stably transfected with GPR40 and aequorin; 0.01% HSA; aequorin luminescence; read-out: Relative EC50
T1 construct: expressed in transfected cells; host or cells: CHO cells
Protocol: Cell-based aequorin assays were employed to characterize the modulatory activity of compounds on the GPR40 signaling pathway. In an exemplary assay, CHO cells were stably transfected with both GPR40 and Aequorin (Euroscreen). Cells were detached from the tissue culture dish with 2 mL of trypsin (0.25% (w/v)). Trypsinization was halted with 28 mL of Hanks Buffered Salt Solution containing 20 mM Hepes (H/HBSS) and 0.01% fatty acid-free human serum albumin (HSA). Coelantrazine is added to 1 ug/mL, and the cells were incubated for 2 hours at room temperature. Compounds were dissolved in DMSO for preparation of 10 mM stock solutions. Compounds were diluted in H/HBSS containing 0.01% HSA. Serial dilutions of the test compounds were prepared to determine dose response.
Aequorin luminescence measurements were made using an EG&G Berthold 96-well luminometer, and the response was measured over a 20 second interval after cells and compounds were mixed. The maximum relative light units was plotted to determine dose response. The EC50 (effective concentration to reach 50% maximal response) was determined from the dose response plot.
Table 1 presents representative data (EC50 values) obtained for exemplary compounds of the invention for the relative activation of human GPR40. […]

islet cells = test: Insulin secretion assay, human islet cells; type: cell-based; conditions: KRBH with 11.2 mM glucose, insulin by SPA, read-out: EC50, stimulation of insulin secretion from islet cells
Protocol: Human islets were isolated from cadaveric donors. Islets were treated with trypsin (0.25% (w/v) and cells were seeded in 96-well plates containing 3,000 cells per well. Cells were cultured in Roswell Park Memorial Institute (RMPI) media containing 10% fetal bovine serum.
For determination of insulin secretion, media was removed from islet cells and replaced with Krebs-Ringer bicarbonate buffer containing 10 mM HEPES (KRBH) and 2 mM glucose. After one hour incubation, media was replaced with KRBH containing 11.2 mM glucose and test compounds. Insulin released into the medium from the islet cells was measured using scintillation proximity assay (SPA).

T1 sequence (O14842 whole entry): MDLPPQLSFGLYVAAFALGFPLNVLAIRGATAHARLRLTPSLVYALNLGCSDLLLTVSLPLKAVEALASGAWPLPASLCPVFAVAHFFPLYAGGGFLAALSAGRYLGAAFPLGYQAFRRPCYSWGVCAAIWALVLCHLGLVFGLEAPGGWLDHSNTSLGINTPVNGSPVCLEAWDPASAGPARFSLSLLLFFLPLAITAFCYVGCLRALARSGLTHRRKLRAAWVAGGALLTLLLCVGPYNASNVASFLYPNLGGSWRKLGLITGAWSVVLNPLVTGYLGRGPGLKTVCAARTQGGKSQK

Compound | EC50 (human GPR40) [µM] | EC50 (islet cells) [µM]
CC#C[C@@H](CC(=O)O)c1ccc(OC2CCc3cc(-c4cccs4)ccc32)cc1 (stereo partly drawn) [Example 4, (3S)-3-[4-(5-Thiophen-2-yl-indan-1-yloxy)-phenyl]-hex-4-ynoic acid] | 0.01 to 0.1 | < 1
CC#C[C@@H](CC(=O)O)c1ccc(OC2CCc3c(-c4cccc(OCC)c4)cccc32)cc1 (stereo partly drawn) [Example 9, (3S)-3-{4-[4-(3-Ethoxy-phenyl)-indan-1-yloxy]-phenyl}-hex-4-ynoic acid] | 1 to 10 | < 1
CCC1(CC)CCC(C)(C)c2ccc(COc3ccc([C@H](CC(=O)O)c4nccn4C)cc3)cc21 [Example 88, (S)-3-(4-((8,8-Diethyl-5,5-dimethyl-5,6,7,8-tetrahydronaphthalen-2-yl)methoxy)phenyl)-3-(1-methyl-1H-imidazol-2-yl)propanoic acid] | 0.1 to 1 | –
CC1(C)CCC(C)(C)c2cc(COc3ccc([C@H](CC(=O)O)c4ccc(F)cc4)cc3)ccc21 [Example 89, (S)-3-(4-Fluorophenyl)-3-(4-((5,5,8,8-tetramethyl-5,6,7,8-tetrahydronaphthalen-2-yl)methoxy)phenyl)propanoic acid] | 0.1 to 1 | –
CC1(C)CCC(C)(C)c2cc(COc3ccc([C@@H](CC(=O)O)c4ccc(F)cc4)cc3)ccc21 [Example 90, (R)-3-(4-Fluorophenyl)-3-(4-((5,5,8,8-tetramethyl-5,6,7,8-tetrahydronaphthalen-2-yl)methoxy)phenyl)propanoic acid] | 1 to 10 | –
Cn1ccnc1[C@@H](CC(=O)O)c1ccc(OCc2cc3c(cc2Br)C(C)(C)CCC3(C)C)cc1 [Example 91, (S)-3-(4-((3-Bromo-5,5,8,8-tetramethyl-5,6,7,8-tetrahydronaphthalen-2-yl)methoxy)phenyl)-3-(1-methyl-1H-imidazol-2-yl)propanoic acid] | 0.1 to 1 | –
Cn1ccnc1[C@@H](CC(=O)O)c1ccc(OCc2cc3c(cc2C2CC2)C(C)(C)CCC3(C)C)cc1 [Example 92, (S)-3-(4-((3-Cyclopopyl-5,5,8,8-tetramethyl-5,6,7,8-tetrahydronaphthalen-2-yl)methoxy)phenyl)-3-(1-methyl-1H-imidazol-2-yl)propanoic acid] | > 10 | –
Cc1cc2c(cc1COc1ccc([C@H](CC(=O)O)c3nccn3C)cc1)C(C)(C)CCC2(C)C [Example 93, (S)-3-(4-((3-Methyl-5,5,8,8-tetramethyl-5,6,7,8-tetrahydronaphthalen-2-yl)methoxy)phenyl)-3-(1-methyl-1H-imidazol-2-yl)propanoic acid] | 0.1 to 1 | –
CCc1cc2c(cc1COc1ccc([C@H](CC(=O)O)c3nccn3C)cc1)C(C)(C)CCC2(C)C [Example 94, (S)-3-(4-((3-Ethyl-5,5,8,8-tetramethyl-5,6,7,8-tetrahydronaphthalen-2-yl)methoxy)phenyl)-3-(1-methyl-1H-imidazol-2-yl)propanoic acid] | 0.1 to 1 | –

Source: patent US7582803B2 (Amgen Inc., priority 2005, dated 2009)
